In data set [1] the test system is HEK293. As to the kind of experiment: Cytotoxicity against HEK293 cells assessed as reduction in cell growth after 3 days by MTT assay. The settings on record: Homo sapiens, HEK293, 72 h. The data set is classed as cell-based. For orientation: Tetrazolium assays rely on reduction of a dye to a coloured formazan, in cell work by metabolically active cells.
Data set [2] relates to HT-29. As to the kind of experiment: Cytotoxicity against human HT-29 cells assessed as reduction in cell growth after 3 days by MTT assay. The class given is functional, cell-based. The settings on record: HT-29, 72 h.
For data set [3], the system named is MCF7. As to the kind of experiment: Cytotoxicity against human MCF7 cells assessed as reduction in cell growth after 3 days by MTT assay. The class given is functional, cell-based. The settings on record: MCF7, 72 h.
The nature of data set [4]: Therapeutic index, ratio of IC50 for HEK293 cells to IC50 for human HT-29 cells. The class given is cell-based. As to conditions: HEK293 cells versus HT-29 cells, read-out: Ratio IC50.
Data set [5] relates to HT-29. As to the kind of experiment: Downregulation of VEGFA-165 secretion in human HT-29 cells assessed as protein secretion levels at 30 ug/ml after 72 hrs by ELISA relative to control. The data set is classed as functional. (ELISA stands for enzyme-linked immunosorbent assay.)
For data set [6], the system named is HT-29. As to the kind of experiment: Downregulation of VEGFA gene expression in human HT-29 cells assessed as gene expression levels at 30 ug/ml after 48 hrs by RT-qPCR analysis relative to control. The data set is classed as functional. Background: In qPCR the cycle at which signal appears reflects the starting amount.
The test system of data set [7] is HT-29. As to the kind of experiment: Downregulation of TERT gene expression in human HT-29 cells assessed as gene expression levels at 30 ug/ml after 48 hrs by RT-qPCR analysis relative to control. The class given is functional.
The subject of data set [8] is HT-29. As to the kind of experiment: Downregulation of c-Myc gene expression in human HT-29 cells assessed as gene expression levels at 30 ug/ml after 48 hrs by RT-qPCR analysis relative to control. The class given is functional.

≈ marks a conversion by molar mass, not a printed value.

For the compound `COc1ccc(-c2ccccc2O)c(OC)c1`, the concentration for half-maximal inhibition (IC50) (usually the midpoint of a concentration-inhibition curve) was greater than 100 µg/mL in data set [1], 33.7 µg/mL (≈ 146 µM) in data set [2] and greater than 100 µg/mL in data set [3]. Moreover, in data set [4], the selectivity ratio is greater than 3. Besides, the Activity in data set [5] turned out to be 29%; in data set [6], 56%; in data set [7], 29%; in data set [8], 54%.

(Values after ChEMBL document CHEMBL3813664, “Synthesis and evaluation of biphenyl derivatives as potential downregulators of VEGF protein secretion and telomerase-related gene expressions” (Bioorg Med Chem, 2016).)
